ChEMBL document CHEMBL1126797 (J Med Chem, 1993)

Legend:
DNA topoisomerase 1 [1] = target: T1, DNA topoisomerase 1 (Homo sapiens, UniProt P11387); assay: Inhibition of Topoisomerase I by cleavage complex formation in human HL-60 cells; assay type: cell-based
T1 sequence (P11387 whole entry): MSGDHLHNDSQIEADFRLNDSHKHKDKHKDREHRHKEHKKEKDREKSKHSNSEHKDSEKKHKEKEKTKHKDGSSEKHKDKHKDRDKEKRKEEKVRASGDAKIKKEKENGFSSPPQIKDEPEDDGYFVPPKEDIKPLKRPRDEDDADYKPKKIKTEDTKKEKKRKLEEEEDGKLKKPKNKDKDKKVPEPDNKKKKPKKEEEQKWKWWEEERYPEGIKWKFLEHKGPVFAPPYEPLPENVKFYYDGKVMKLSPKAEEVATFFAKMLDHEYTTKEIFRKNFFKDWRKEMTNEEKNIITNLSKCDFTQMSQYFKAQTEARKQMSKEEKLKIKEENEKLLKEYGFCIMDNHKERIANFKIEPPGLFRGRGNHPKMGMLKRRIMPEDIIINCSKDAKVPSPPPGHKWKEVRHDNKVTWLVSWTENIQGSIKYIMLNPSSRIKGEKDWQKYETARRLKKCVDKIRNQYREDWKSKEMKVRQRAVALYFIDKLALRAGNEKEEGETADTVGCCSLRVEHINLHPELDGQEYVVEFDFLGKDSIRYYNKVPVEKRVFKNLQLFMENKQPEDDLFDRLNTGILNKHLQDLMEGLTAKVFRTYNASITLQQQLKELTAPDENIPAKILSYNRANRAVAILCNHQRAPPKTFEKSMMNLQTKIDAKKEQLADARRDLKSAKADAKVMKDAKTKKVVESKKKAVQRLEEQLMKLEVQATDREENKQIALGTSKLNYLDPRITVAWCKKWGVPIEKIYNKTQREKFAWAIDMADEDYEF

Mus musculus [2] = organism: Mus musculus; assay: Number of L1210 lymphoid leukemic mice cured out of […]; assay type: functional
Mus musculus [3] = organism: Mus musculus; assay: Toxic dose in L1210 lymphoid leukemic mice; assay type: toxicity, organism-based; details: in vivo
Mus musculus [4] = organism: Mus musculus; assay: Percent median survival time of treated leukemic mice compared to control; assay type: functional
Mus musculus [5] = assay: Highest active dose in L1210 lymphoid leukemic mice at dose range of 2.37-8 mg/kg; assay type: functional
L1210 [6] = assay: Log of initial tumor cell population minus log of tumor cell population at end of treatment in L1210 lymphoid leukemic mice; assay type: functional, Mus musculus
Mus musculus [7] = assay: Relative survival in RAW117-H10 cells implanted mice in comparison to control at dose of 4 mg/kg; assay type: functional
[8] = Number of metastases in K1735-M2 murine melanoma after subcutaneous administration on days1,4,6,8 at dose of 4 mg/kg; assay type: functional, Mus musculus
HT-29 [9] = assay: Tumor volume in HT-29 cells after subcutaneous administration on days 16,20,23,27,30,34,37,41,44,48 at dose of 4 mg/kg; assay type: functional, Homo sapiens
Mus musculus [10] = assay: Relative survival as percent of control survival time in L1210 murine lymphoid leukemic mice after sc administration on days1,4,6,8 at dose of 4 mg/kg; assay type: functional; details: route subcutaneous
HT-29 [11] = assay: Tumor volume in HT-29 cells after subcutaneous administration on days 16,20,23,27,30,34,37,41,44,48 at dose of 3 mg/kg; assay type: functional, Homo sapiens
[12] = Number of metastases in K1735-M2 murine melanoma cells after subcutaneous administration on days1,4,6,8 at dose of 3 mg/kg; assay type: functional, Mus musculus
Mus musculus [13] = assay: Relative survival in RAW117-H10 cells implanted mice in comparison to control at dose of 3 mg/kg; assay type: functional
Mus musculus [14] = assay: Relative survival in L1210 lymphoid leukemic mice after subcutaneous administration on days 1,4,6,8 at dose of 3 mg/kg; assay type: functional
DNA topoisomerase 1 [15] = target: T1, DNA topoisomerase 1; assay: Inhibition of Topoisomerase I by cleavage complex formation in intact human HL-60 cells; assay type: cell-based
L1210 [16] = assay: Relative survival in L1210 murine lymphoid leukemia cells after subcutaneous administration on days1,4,6,8 at dose of 6 mg/kg; assay type: functional, Mus musculus
Mus musculus [17] = assay: Median survival time of treated/control animals x 100 after i.v. drug dosing on hours 1 and 5; assay type: functional
Mus musculus [18] = assay: Number of L1210 mice cured after i.v. drug dosing on hours 1 and 5; assay type: functional
[19] = Number of metastases in K1735-M2 murine melanoma cells after subcutaneous administration on days1,4,6,8 at dose of 6 mg/kg; assay type: functional, Mus musculus
Mus musculus [20] = assay: Highest active dose in L1210 lymphoid leukemic mice after i.v. drug dosing on hours 1 and 5 at dose range of 2.85-10 mg/kg; assay type: functional
L1210 [21] = assay: Toxic dose in L1210 murine lymphoid leukemia at dose of 20 mg/kg; NT means not toxic; assay type: toxicity, organism-based; set-up: dose 20 mg/kg; details: mouse, in vivo
L1210 [22] = assay: Log of initial tumor cell population minus log of tumor cell population at end of treatment after i.v. drug dosing on hours 1 and 5; assay type: functional, Mus musculus
Mus musculus [23] = assay: Relative survival in RAW117-H10 cells implanted mice in comparison to control at dose of 6 mg/kg; assay type: functional
Mus musculus [24] = assay: Relative survival in L1210 lymphoid leukemic mice after subcutaneous administration on days 1,4,6,8 at dose of 4 mg/kg; assay type: functional
Mus musculus [25] = assay: Relative survival in RAW117-H10 cells implanted mice in comparison to control at dose of 2.5 mg/kg; assay type: functional
[26] = Number of metastases in K1735-M2 murine melanoma cells after subcutaneous administration at dose of 2.5 mg/kg; assay type: functional, Mus musculus
Mus musculus [27] = assay: Highest active dose in L1210 lymphoid leukemic mice at dose range of 0.6-5 mg/kg; assay type: functional
HT-29 [28] = assay: Tumor volume in HT-29 cells after subcutaneous administration on days 16,20,23,27,30,34,37,41,44,48 at dose of 2.5 mg/kg; assay type: functional, Homo sapiens

Structure (SMILES) | IC50 (DNA topoisomerase 1 [1]) [nM] | also measured
CC[C@@]1(O)C(=O)OCc2c1cc1n(c2=O)Cc2cc3cc(C#N)ccc3nc2-1 | 1900 | –
CC[C@@]1(O)C(=O)OCc2c1cc1n(c2=O)Cc2cc3c(C)cccc3nc2-1 | 38 | Cures (Mus musculus [2]): 4; Toxic dose (Mus musculus [3]): 12 mg/kg; T/C (Mus musculus [4]): 274%; Highest active dose (Mus musculus [5]): 8 mg/kg; KE (L1210 [6]): 5.6
CC[C@@](O)(C(=O)O)c1cc2n(c(=O)c1CO)Cc1cc3ccccc3nc1-2 | 12000 | –
CC[C@@](O)(C(=O)[O-])c1cc2n(c(=O)c1CO)Cc1cc3cc4c(cc3nc1-2)OCO4.[Na+] | 840 | T/C (Mus musculus [7]): 1.36; Control [8]: 15%; Control (HT-29 [9]): 40%; T/C (Mus musculus [10]): 2.13
CC[C@@]1(O)C(=O)OCc2c1cc1n(c2=O)Cc2cc3c([N+](=O)[O-])c4c(cc3nc2-1)OCO4 | 150 | –
CC[C@@]1(O)C(=O)OCc2c1cc1n(c2=O)Cc2cc3cc(C)ccc3nc2-1 | 300 | –
CC[C@@]1(O)C(=O)OCc2c1cc1n(c2=O)Cc2cc3cc(Cl)ccc3nc2-1 | 140 | –
CC[C@@]1(O)C(=O)OCc2c1cc1n(c2=O)Cc2cc3cc([N+](=O)[O-])ccc3nc2-1 | 640 | –
CC[C@@]1(O)C(=O)OCc2c1cc1n(c2=O)Cc2cc3cc4c(cc3nc2-1)OCO4 | – | Control (HT-29 [11]): 18%; Control [12]: 9%; T/C (Mus musculus [13]): 1.33; T/C (Mus musculus [14]): 1.49
CCC1(O)C(=O)OCc2c1cc1n(c2=O)Cc2cc3cc(F)ccc3nc2-1 (centres undefined) | 370 | –
CC[C@](O)(C(=O)O)c1cc2n(c(=O)c1CO)Cc1cc3c(N)c4c(cc3nc1-2)OCO4 | > 30000 | –
CC[C@]1(O)C(=O)OCc2c1cc1n(c2=O)Cc2cc3c(N)c4c(cc3nc2-1)OCO4 | > 30000 | –
CCC1(O)C(=O)OCc2c1cc1n(c2=O)Cc2cc3c(CN4CC4)c(O)ccc3nc2-1 (centres undefined) | 1100 | –
CC[C@@]1(O)C(=O)OCc2c1cc1n(c2=O)Cc2cc3c(O)cccc3nc2-1 | 870 | –
CCC1(O)C(=O)OCc2c1cc1n(c2=O)Cc2cc3cc(OC(=O)N4CCC(N5CCCCC5)CC4)ccc3nc2-1 (centres undefined) | 21000 | –
CCC1(O)C(=O)OCc2c1cc1n(c2=O)Cc2cc3c(Cl)c(Cl)ccc3nc2-1 (centres undefined) | 110 | –
CCC1(O)C(=O)OCc2c1cc1n(c2=O)Cc2cc3c(F)cccc3nc2-1 (centres undefined) | 160 | –
CCC1(O)C(=O)OCc2c1cc1n(c2=O)Cc2cc3c(Cl)c4c(cc3nc2-1)OCO4 (centres undefined) | 61 | –
CCC1(O)C(=O)OCc2c1cc1n(c2=O)Cc2cc3cc(Br)ccc3nc2-1 (centres undefined) | 130 | –
CCC1(O)C(=O)OCc2c1cc1n(c2=O)Cc2cc3cc(OC(=O)N4CCN(C)CC4)ccc3nc2-1 (centres undefined) | 4400 | –

Structure (SMILES) | IC50 (DNA topoisomerase 1 [1]) [nM] | also measured
CCC1(O)C(=O)OCc2c1cc1n(c2=O)Cc2cc3cc(C(=O)O)ccc3nc2-1 (centres undefined) | 1000 | –
CCC(O)(C(=O)O)c1cc2n(c(=O)c1CO)Cc1cc3c(N)cccc3nc1-2 (racemic) | 13000 | –
CCC1(O)C(=O)OCc2c1cc1n(c2=O)Cc2cc3c4c(ccc3nc2-1)OCO4 (racemic) | 3800 | –
CCC1(O)C(=O)OCc2c1cc1n(c2=O)Cc2cc3c([N+](=O)[O-])c4c(cc3nc2-1)OCO4 (racemic) | 220 | –
O=C1OCc2c(cc3n(c2=O)Cc2cc4ccccc4nc2-3)C1(O)CCO (racemic) | 9600 | –
CCC1(O)C(=O)OCc2c1cc1n(c2=O)Cc2cc3c(NC(=O)CN)c4c(cc3nc2-1)OCO4 (racemic) | 260 | IC50 (DNA topoisomerase 1 [15]): > 30000 nM
CCC1(O)C(=O)OCc2c1cc1n(c2=O)Cc2cc3c(N)c(Br)cc(Br)c3nc2-1 (racemic) | > 30000 | –
CCC(O)(C(=O)O)c1cc2n(c(=O)c1CO)Cc1cc3ccccc3nc1-2 (racemic) | 2000 | –
CCC1(O)C(=O)OCc2c1cc1n(c2=O)Cc2cc3cc4c(cc3nc2-1)OCCO4 (racemic) | 470 | –
CCC1(O)C(=O)OCc2c1cc1n(c2=O)Cc2cccnc2-1 (racemic) | > 30000 | –
CCC(O)(C(=O)[O-])c1cc2n(c(=O)c1CO)Cc1cc3cc4c(cc3nc1-2)OCO4.[Na+] (racemic) | 550 | T/C (L1210 [16]): 2.13; T/C (Mus musculus [17]): 157%; Cures (Mus musculus [18]): 0; Control [19]: 4%; Highest active dose (Mus musculus [20]): 10 mg/kg; Toxic dose (L1210 [21]): Non-toxic; KE (L1210 [22]): 4.79; T/C (Mus musculus [23]): 1.32
CCC1(O)C(=O)OCc2c1cc1n(c2=O)Cc2cc3c(N)c4c(cc3nc2-1)OCO4 (racemic) | 76 | IC50 (DNA topoisomerase 1 [15]): 69 nM; Control [12]: 25%; T/C (Mus musculus [13]): 1.6; T/C (Mus musculus [14]): 3
CC1(O)C(=O)OCc2c1cc1n(c2=O)Cc2cc3ccccc3nc2-1 (racemic) | 4000 | –
CCC1(O)C(=O)OCc2c1cc1n(c2=O)Cc2cc3c(Cl)cccc3nc2-1 (racemic) | 190 | –
O=C1OCc2c(cc3n(c2=O)Cc2cc4ccccc4nc2-3)C1(O)CCBr (racemic) | 3100 | –
CCC1(O)C(=O)OCc2c1cc1n(c2=O)Cc2cc3c(OC)cccc3nc2-1 (racemic) | 1600 | –
CCC1(O)C(=O)OCc2c1cc1n(c2=O)Cc2cc3c(N)cccc3nc2-1 (racemic) [RS-9-Aminocamptothecin] | 440 | IC50 (DNA topoisomerase 1 [15]): 840 nM
CC[C@@]1(O)C(=O)OCc2c1cc1n(c2=O)Cc2cc3c(N)cccc3nc2-1 [9-AMINOCAMPTOTHECIN] | 110 | T/C (Mus musculus [24]): 2.44; Cures (Mus musculus [2]): 3; T/C (Mus musculus [25]): 1.15; Control [26]: 73%; Toxic dose (Mus musculus [3]): 10 mg/kg; T/C (Mus musculus [4]): 361%; Highest active dose (Mus musculus [27]): 0.6 mg/kg; KE (L1210 [6]): 5.97; Control (HT-29 [28]): 25%
CC[C@@]1(O)C(=O)OCc2c1cc1n(c2=O)Cc2cc3cc(O)ccc3nc2-1 [HYDROXYCAMPTOTHECIN] | 110 | –
